Experimental data as given in patent publication US9636356B2, “Nanoparticle compositions of antibacterial compounds and other uses thereof” (JAWAHARLAL NEHRU CENTRE FOR ADVANCED SCIENTIFIC RESEARCH, priority 2012, dated 2017).

Test system: vancomycin resistant E. faecium (VRE) (ATCC 51559)
Assay: Antibacterial activity (MIC), modified micro-dilution broth
Format: cell-based, Vancomycin resistant Enterococcus faecium
Conditions: 24 h, read-out: MIC VRE
Method: E. coli is cultured in Luria Bertani broth (10 g of tryptone, 5 g of yeast extract, and 10 g of NaCl in 1000 mL of sterile distilled water (pH −7) while S. aureus, P. aeruginosa and MRSA are grown in Yeast-dextrose broth (1 g of beef extract, 2 g of yeast extract, 5 g of peptone and 5 g of NaCl in 1000 mL of sterile distilled water). For E. faecium and VRE, Brain Heart Infusion broth (BHI) is used. K. pneumoniae is grown in nutrient media (3 g of beef extract and 5 g of peptone in 1000 mL of sterile distilled water). For solid media 5% agar is used along with above mentioned composition. The bacterial samples are freeze dried and stored at −80° C. 5 μl of these stocks are added to 3 mL of the nutrient broth and the culture is grown for 6 h at 37° C. prior to the experiments.
Antibacterial activity is determined with the slight modifications of standardized protocols. Water-soluble Q-PIBMI derivatives are assayed in a modified micro-dilution broth format. […] Bacteria, to be tested, grown for 6 h in the suitable media containing ˜10^9 cfu/mL (determined by spread plating method), which is then diluted to 10^5 cfu/mL using nutrient media. […] MIC value is determined by taking the average of triplicate O.D. values for each concentration and plotting it against concentration using Origin Pro 8.0 software. […]

CN[C@H](CC(C)C)C(=O)N[C@H]1C(=O)N[C@@H](CC(N)=O)C(=O)N[C@H]2C(=O)N[C@H]3C(=O)N[C@H](C(=O)N[C@H](C(=O)O)c4cc(O)cc(O)c4-c4cc3ccc4O)[C@H](O)c3ccc(c(Cl)c3)Oc3cc2cc(c3O[C@@H]2O[C@H](CO)[C@@H](O)[C@H](O)[C@H]2O[C@H]2C[C@](C)(N)[C@H](O)[C@H](C)O2)Oc2ccc(cc2Cl)[C@H]1O [Vamcomycin]
MIC: > 156 µg/mL
